Patent US20200165194A1, “ADDITIVE COMPOSITION FOR CULTURE MEDIUM, ADDITIVE COMPOUND FOR CULTURE MEDIUM, AND METHOD FOR CULTURE OF CELLS OR TISSUE USING SAME” (NISSAN CHEMICAL CORPORATION, priority 2017, published 2020)
Read-outs that look alike come from different tables or passages of the source.

Experiments:
Assay type in all cases: cell-based
[1] = system: human alveolar basal epithelial adenocarcinoma-derived cell line A549; assay: Various human cancer cells-2, 3D culture, ATP assay (Experimental Example 6); settings: 4 days
Method: (§1) Various human-derived cancer cells were precultured (single layer culture) in respective media shown below. […] The above-mentioned cells in the logarithmic growth phase were washed with PBS, a 0.25 w/v % trypsin-1 mmol/L EDTA (ethylenediaminetetraacetic acid) solution (manufactured by Wako Pure Chemical Industries, Ltd.) was added, and adherent cells were detached by incubating at 37° C. for 1-5 min. Each medium was added and the mixture was centrifuged. After resuspension in the same medium, each cell was recovered.
(§2) The aforementioned various cells were suspended in respective deacylated gellan gum-containing or not containing media (deacylated gellan gum concentration was 0.015 w/v %), and seeded in a 96 well low attachment U-bottom plate (manufactured by Corning, #4520, deacylated gellan gum-free medium), or a low attachment flat bottom plate (manufactured by Corning, #3474, deacylated gellan gum-containing medium) at a cell concentration of 700-12000 cells/90 μL/well (all 3D culture). […] The amount of each compound solution to be added was 10 μL/well. As a control, a DMSO solution dissolved in a medium was added (DMSO final concentration 0.1%). […] When compared with the compound no-addition (control), one showing a value of not more than 119% as -, one showing a value of not less than 120% as ◯, and one showing a value of not less than 150% as ⊚ are shown in the eleventh table and the twelfth table. Unperformed test is left blank.

[2] = system: human ovarian cancer cell line SKOV3; assay: as above; settings: 4 days
Method: as §1, §2

[3] = system: a plurality of cancer cell lines; assay: Various human cancer cells-2, summary over the cell lines (Experimental Example 6); settings: cancer cell lines under three-dimensional conditions
Method: as §1, §2

plural animal cell lines = assay: Animal cell lines, summary over the cell lines (Experimental Example 15); settings: animal cell lines under three-dimensional conditions
Description: (§3) Various animal cell lines were precultured (single layer culture) as follows in respective media. Chinese hamster ovary-derived cell line CHO-K1 (manufactured by DS PHARMA BIO MEDICAL, 10% fetal bovine serum (FBS, manufactured by Corning)-containing Ham's F-12 medium (manufactured by Fujifilm Wako Pure Chemical Corporation)), Cercopithecus aethiops kidney epithelium-derived cell line Vero (purchased from JCRB cell bank, 5% FBS-containing Medium 199 medium (manufactured by Life Technologies)). The above-mentioned cells in the logarithmic growth phase were washed with PBS, a 0.25 w/v % trypsin-1 mmol/L EDTA (ethylenediaminetetraacetic acid) solution (manufactured by Fujifilm Wako Pure Chemical Corporation) was added, and adherent cells were detached by incubating at 37° C. for 3 min. Each medium was added and the mixture was centrifuged and resuspended in the same medium.
(§4) The aforementioned various animal cells were suspended in respective deacylated gellan gum-containing or not containing media (deacylated gellan gum concentration was 0.02 w/v % in Ham's F-12 medium, 0.015 w/v % in Medium 199 medium), and seeded in a 96 well low attachment U-bottom plate (manufactured by Corning, #4520, deacylated gellan gum-free medium), or a low attachment flat bottom plate (manufactured by Corning, #3474, deacylated gellan gum-containing medium) at a cell concentration of 700-2000 cells/90 μL/well (all 3D culture). […] The amount of each compound solution to be added was […]. As a control, a DMSO solution dissolved in a medium was added (DMSO final concentration 0.1%). […] When compared with the compound non-addition (control), one showing a value of not more than 119% as -, one showing a value of not less than 120% as ◯, and one showing a value of not less than 150% as ⊚ are shown in the twenty-third table and the twenty-fourth table.

[4] = system: Cercopithecus aethiops kidney epithelium-derived cell line Vero; assay: Animal cell lines, 3D culture, ATP assay (Experimental Example 15); settings: 4 days
Description: as §3, §4

[5] = system: Chinese hamster ovary-derived cell line CHO-K1; assay: as above; settings: Cricetulus griseus, CHO-K1, 96 h, CHO-K1, 4 days, read-out: number of viable cells (RLU), relative value to control (100%)
Description: as §3, §4

[6] = system: Human umbilical vein endothelial cells; assay: Vascular endothelial cell, 3D culture, ATP assay (Experimental Example 14); settings: human umbilical vein endothelial cells under three-dimensional conditions
Method: Human umbilical vein endothelial cells (manufactured by PromoCell) were precultured in Endothelial Cell proliferation Medium (manufactured by PromoCell) medium (single layer culture). The above-mentioned cells in the logarithmic growth phase were washed with PBS, DetachKit (manufactured by PromoCell) was added, and adherent cells were detached by incubating at 37° C. for 3 min. The medium was added and the mixture was centrifuged and resuspended in the same medium.
The aforementioned cells were suspended in respective deacylated gellan gum-containing or not containing media (deacylated gellan gum concentration was 0.015 w/v %), and seeded in a 96 well low attachment U-bottom plate (manufactured by Corning, #4520, deacylated gellan gum-free medium), or a low attachment flat bottom plate (manufactured by Corning, #3474, deacylated gellan gum-containing medium) at a cell concentration of 700-2000 cells/90 μL/well (all 3D culture). […] The amount of each compound solution to be added was 10 μL/well. As a control, a DMSO solution dissolved in a medium was added (DMSO final concentration 0.1%).

[7] = low attachment U-bottom plate, 5 μM
[8] = low attachment U-bottom plate, 10 μM
[9] = low attachment flat bottom plate (gellan gum medium), 5 μM
[10] = low attachment flat bottom plate (gellan gum medium), 10 μM
[11] = low attachment flat bottom plate (deacylated gellan gum-containing medium)

In the case of `CC/C(=N\NC(=O)C(C)Nc1ccccc1)c1ccc(O)c(C)c1O` (stereo not shown) [k-1:B-1], the “number of viable cells (RLU), relative value to control (100%)” value (“number … relative value to control (100%)” below) [1, 7] is reported as “⊙”, the “number … relative value to control (100%)” value [1, 8] is reported as “⊙” and the “number … relative value to control (100%)” value [1, 9] is reported as “⊙”. The “number … relative value to control (100%)” value [1, 10] was “⊙”, the “number … relative value to control (100%)” value [2, 7] was “⊙” and the “number … relative value to control (100%)” value [2, 8] was “⊙”. The “number … relative value to control (100%)” value [2, 9] was “⊙”, the “number … relative value to control (100%)” value [2, 10] was “⊙” and the “proliferation activity (in words)” value [3] was “promoted proliferation activity in a plurality of cancer cell lines”. For the same compound, the “proliferation activity (in words)” value (plural animal cell lines) was “promoted proliferation activity in plural animal cell lines”, the “number … relative value to control (100%)” value [4, 7] was “⊙” and the “number … relative value to control (100%)” value [4, 8] was “⊙”. For the same compound, the “number … relative value to control (100%)” value ([4]; low attachment flat bottom plate (deacylated gellan gum-containing medium), 5 μM) was “⊙”, the “number … relative value to control (100%)” value ([4]; low attachment flat bottom plate (deacylated gellan gum-containing medium), 10 μM) was “⊙” and the viability at 5 µM ([5]; low attachment U-bottom plate) was < 119%. For the same compound, the viability at 10 µM ([5]; low attachment U-bottom plate) was < 119%, the viability at 5 µM [5, 11] was 120 to 150% and the viability at 10 µM [5, 11] was < 119%. For the same compound, the “proliferation activity (in words)” value [6] was “promoted proliferation activity in human umbilical vein endothelial cells”.
